Among the data in US20260125370A1, “SULFOXIMINE COMPOUNDS AS HISTONE DEACETYLASE 6 INHIBITOR, AND PHARMACEUTICAL COMPOSITION COMPRISING THE SAME” (CHONG KUN DANG PHARMACEUTICAL CORP., priority 2022, published 2026) are IC50 values, retold here.

Structures are written as SMILES.

Broadly, the IC50 is the concentration at which inhibition is half-maximal.

Assay [1] concerns the target T1, human recombinant HDAC6 (Homo sapiens, UniProt Q9UBN7).
T1 construct: purchased Calbiochem 382180
T1 sequence (Q9UBN7 1-1215): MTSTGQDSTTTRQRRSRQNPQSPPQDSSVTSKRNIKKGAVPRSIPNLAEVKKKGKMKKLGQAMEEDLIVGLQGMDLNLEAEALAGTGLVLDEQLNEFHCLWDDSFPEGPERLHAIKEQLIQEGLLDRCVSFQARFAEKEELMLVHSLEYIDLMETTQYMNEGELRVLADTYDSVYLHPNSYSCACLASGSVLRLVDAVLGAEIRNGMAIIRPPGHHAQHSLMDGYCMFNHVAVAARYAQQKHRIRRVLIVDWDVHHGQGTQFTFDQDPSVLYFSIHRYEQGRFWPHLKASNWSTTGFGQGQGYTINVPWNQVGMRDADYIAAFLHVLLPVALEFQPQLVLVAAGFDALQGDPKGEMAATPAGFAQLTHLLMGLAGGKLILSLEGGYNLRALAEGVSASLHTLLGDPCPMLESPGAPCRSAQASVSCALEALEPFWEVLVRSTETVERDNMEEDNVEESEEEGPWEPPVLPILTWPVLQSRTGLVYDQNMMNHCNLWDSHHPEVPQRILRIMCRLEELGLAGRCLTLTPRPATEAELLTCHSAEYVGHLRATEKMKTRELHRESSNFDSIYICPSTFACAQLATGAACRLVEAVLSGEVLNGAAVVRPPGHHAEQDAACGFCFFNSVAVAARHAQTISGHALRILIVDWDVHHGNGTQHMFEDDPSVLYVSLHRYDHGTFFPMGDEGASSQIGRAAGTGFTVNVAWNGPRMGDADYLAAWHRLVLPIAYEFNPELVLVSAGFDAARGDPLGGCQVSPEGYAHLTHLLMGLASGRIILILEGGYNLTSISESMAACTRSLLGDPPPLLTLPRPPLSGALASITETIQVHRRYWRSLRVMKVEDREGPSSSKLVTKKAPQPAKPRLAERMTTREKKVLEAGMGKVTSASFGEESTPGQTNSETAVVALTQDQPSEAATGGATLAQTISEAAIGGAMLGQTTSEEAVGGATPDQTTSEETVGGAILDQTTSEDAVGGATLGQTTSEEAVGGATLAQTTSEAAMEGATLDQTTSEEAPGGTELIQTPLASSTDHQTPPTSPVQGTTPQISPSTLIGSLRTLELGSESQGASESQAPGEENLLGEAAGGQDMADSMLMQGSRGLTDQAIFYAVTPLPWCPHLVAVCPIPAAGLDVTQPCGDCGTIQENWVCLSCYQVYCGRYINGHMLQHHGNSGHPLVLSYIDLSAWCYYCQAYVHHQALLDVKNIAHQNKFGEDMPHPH
As to the kind of experiment: HDAC6 enzyme activity inhibition (fluorimetric, in vitro). The class given is biochemical. The following applies: samples at 0.1, 1, 10, 100 and 1000 nM. The procedure: (§1) A HDAC enzyme inhibitory capacity of a test material was measured by using HDAC1 Fluorimetric Drug Discovery Assay Kit (Enzolifesciences: BML-AK511) and HDAC6 human recombinant (Calbiochem: 382180). For a HDAC1 assay, samples were treated at a concentration of 100, 1000 and 10000 nM. For a HDAC6 assay, samples were treated at a concentration of 0.1, 1, 10, 100 and 1000 nM.
(§2) For the test on the HDAC1 enzyme activity, human recombinant HDAC1 (BML-SE456) was used as a zymogen and Fluor de Lys®-SIRT1 (BNL-KI177) was used as a substrate. A 5-fold dilution of the compound was divided into a 96-well plate, after which 0.3 μg of the enzyme and […] of the substrate were inserted into each well and subjected to reaction at 37° C. for 60 minutes, such that Fluor de Lys® Developer II (BML-K1176) was inserted thereinto and subjected to reaction for 30 minutes and finished. After that, a fluorescence value (Ex 360, Em 460) was measured with a multi-plate reader (FlexStation 3, Molecular Device). An experiment on HDAC6 enzyme was conducted in accordance with the same protocol as in the HDAC1 enzyme activity test method by using human recombinant HDAC6 (382180) of Calbiochem Inc. For final result values, each IC50 value was calculated with GraphPad Prism 4.0 program.

Assay [2] deals with T2, human recombinant HDAC1 (Homo sapiens, UniProt Q13547).
T2 construct: purchased Enzolifesciences BML-SE456
T2 sequence (Q13547 whole entry): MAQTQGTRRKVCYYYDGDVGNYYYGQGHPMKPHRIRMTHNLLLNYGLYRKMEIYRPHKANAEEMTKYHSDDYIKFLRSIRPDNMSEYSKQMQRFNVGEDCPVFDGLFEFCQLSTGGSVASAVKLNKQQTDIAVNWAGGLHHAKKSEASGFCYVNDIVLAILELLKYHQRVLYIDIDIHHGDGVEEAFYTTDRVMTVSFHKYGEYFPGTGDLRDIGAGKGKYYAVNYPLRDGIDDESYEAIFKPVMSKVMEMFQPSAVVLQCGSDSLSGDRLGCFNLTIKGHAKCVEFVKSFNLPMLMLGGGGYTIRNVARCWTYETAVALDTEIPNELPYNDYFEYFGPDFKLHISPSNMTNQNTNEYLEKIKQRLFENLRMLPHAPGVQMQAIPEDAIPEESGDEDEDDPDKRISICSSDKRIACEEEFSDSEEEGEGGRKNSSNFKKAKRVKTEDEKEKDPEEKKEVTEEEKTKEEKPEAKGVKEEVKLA
As to the kind of experiment: HDAC1 enzyme activity inhibition (HDAC1 Fluorimetric Drug Discovery Assay Kit, in vitro). The class given is biochemical. The following applies: samples at 100, 1000 and 10000 nM. The procedure: as §1, §2

`CS(=O)(=O)N=S1(=O)CCN(C(=O)N(Cc2ccc(-c3nnc(C(F)F)o3)cc2F)c2ccccc2)CC1` [Compound 37, N-(4-(5-(difluoromethyl)-1,3,4-oxadiazol-2-yl)-2-fluorobenzyl)-1-((methylsulfonyl)imino)-N-phenylthiomorpholin-4-carboxamide 1-oxide]: the figures for the IC50 in assay [1] and in assay [2] were 0.0613 µM and over 10 µM, respectively.
As for `COC(=O)N=S1(=O)CCN(C(=O)N(Cc2ccc(-c3nnc(C(F)F)o3)cc2F)c2ccccc2)CC1` [Compound 38, Methyl (4-((4-(5-(difluoromethyl)-1,3,4-oxadiazol-2-yl)-2-fluorobenzyl)(phenyl)carbamoyl)-1-oxidothiomorpholin-1-ylidene)carbamate], the IC50 in assay [1] is 0.0672 µM; in assay [2], over 10 µM.
The matching figures for `CN=S1(=O)CCN(C(=O)N(Cc2ccc(-c3nnc(C(F)F)o3)cc2F)c2ccccc2)CC1` [Compound 39, N-(4-(5-(difluoromethyl)-1,3,4-oxadiazol-2-yl)-2-fluorobenzyl)-1-(methylimino)-N-phenylthiomorpholin-4-carboxamide 1-oxide]: 0.0808 µM and over 10 µM.
In the case of `CC(=O)N=S1(=O)CCN(C(=O)N(Cc2ccc(-c3nnc(C(F)F)o3)cc2F)c2ccccc2)CC1` [Compound 40, 1-(acetylimino)-N-(4-(5-(difluoromethyl)-1,3,4-oxadiazol-2-yl)-2-fluorobenzyl)-N-phenylthiomorpholin-4-carboxamide 1-oxide], the values for the IC50 in assay [1] and in assay [2] were 0.0848 µM and over 10 µM, respectively.
The corresponding values for `N=S1(=O)CCN(C(=O)N(Cc2ccc(-c3nnc(C(F)F)o3)cc2F)c2cccc(Br)c2)CC1` [Compound 41, N-(3-bromophenyl)-N-(4-(5-(difluoromethyl)-1,3,4-oxadiazol-2-yl)-2-fluorobenzyl)-1-iminothiomorpholin-4-carboxamide 1-oxide] are 0.0289 µM and over 10 µM.
The matching figures for `N=S1(=O)CCN(C(=O)N(Cc2ccc(-c3nnc(C(F)F)o3)cc2F)c2ccc(Cl)c(Cl)c2)CC1` [Compound 42, N-(3,4-dichlorophenyl)-N-(4-(5-(difluoromethyl)-1,3,4-oxadiazol-2-yl)-2-fluorobenzyl)-1-iminothiomorpholin-4-carboxamide 1-oxide]: 0.0377 µM and over 10 µM.
The matching figures for `N=S1(=O)CCN(C(=O)N(Cc2ccc(-c3nnc(C(F)F)o3)cc2F)c2cccc(-c3cncs3)c2)CC1` [Compound 43, N-(4-(5-(difluoromethyl)-1,3,4-oxadiazol-2-yl)-2-fluorobenzyl)-1-imino-N-(3-(thiazole-5-yl)phenyl)thiomorpholin-4-carboxamide 1-oxide]: 0.0889 µM and over 10 µM.
`N=S1(=O)CCN(C(=O)N(Cc2ccc(-c3nnc(C(F)F)o3)cc2F)c2cccc(-c3ccco3)c2)CC1` [Compound 44, N-(4-(5-(difluoromethyl)-1,3,4-oxadiazol-2-yl)-2-fluorobenzyl)-N-(3-(furan-2-yl)phenyl)-1-iminothiomorpholin-4-carboxamide 1-oxide]: the half-maximal inhibitory concentration (IC50) in assay [1] is 0.13 µM; in assay [2] it was over 10 µM.
Consider `N=S1(=O)CCN(C(=O)N(Cc2ccc(-c3nnc(C(F)F)o3)cn2)c2cc(F)ccc2F)CC1` [Compound 45, N-((5-(5-(difluoromethyl)-1,3,4-oxadiazol-2-yl)pyridin-2-yl)methyl)-N-(2,5-difluorophenyl)-1-iminothiomorpholin-4-carboxamide 1-oxide], for which the IC50 in assay [1] is 0.0636 µM; in assay [2], over 10 µM.
The corresponding values for `N=S1(=O)CCN(C(=O)N(Cc2ncc(-c3nnc(C(F)F)o3)cc2F)c2cc(F)ccc2F)CC1` [Compound 46, N-((5-(5-(difluoromethyl)-1,3,4-oxadiazol-2-yl)-3-fluoropyridin-2-yl)methyl)-N-(2,5-difluorophenyl)-1-iminothiomorpholin-4-carboxamide 1-oxide] are 0.0659 µM and over 10 µM.
The corresponding values for `N=S1(=O)CCN(C(=O)N(Cc2ccc(-c3nnc(C(F)F)o3)cc2F)c2cccc(-c3cccnc3)c2)CC1` [Compound 47, N-(4-(5-(difluoromethyl)-1,3,4-oxadiazol-2-yl)-2-fluorobenzyl)-1-imino-N-(3-(pyridin-3-yl)phenyl)thiomorpholin-4-carboxamide 1-oxide] are 0.185 µM and over 10 µM.
The matching figures for `N=S1(=O)CCC(N2C[C@@H]3C[C@H]2CN3C(=O)N(Cc2ccc(-c3nnc(C(F)F)o3)cn2)c2ccccc2F)CC1` (stereo partly drawn) [Compound 48, (1S,4S)—N-((5-(5-(difluoromethyl)-1,3,4-oxadiazol-2-yl)pyridin-2-yl)methyl)-N-(2-fluorophenyl)-5-(1-imino-1-oxidotetrahydro-2H-thiopyran-4-yl)-2,5-diazabicyclo[2.2.1]heptan-2-carboxamide]: 0.113 µM and over 10 µM.
As to `N=S1(=O)CCN(C(=O)N(Cc2ccc(-c3nnc(C(F)F)o3)cn2)c2ccc(Cl)cc2Cl)CC1` [Compound 49, N-(2,4-dichlorophenyl)-N-((5-(5-(difluoromethyl)-1,3,4-oxadiazol-2-yl)pyridin-2-yl)methyl)-1-iminothiomorpholin-4-carboxamide 1-oxide], the IC50 was 0.0777 µM in assay [1] and over 10 µM in assay [2].
Turning to `N=S1(=O)CCN(C(=O)N(Cc2ncc(-c3nnc(C(F)F)o3)cc2F)c2ccc(Cl)cc2Cl)CC1` [Compound 50, N-(2,4-dichlorophenyl)-N-((5-(5-(difluoromethyl)-1,3,4-oxadiazol-2-y1)-3-fluoropyridin-2-yl)methyl)-1-iminothiomorpholin-4-carboxamide 1-oxide], the 50% inhibitory concentration (IC50) is 0.0664 µM in assay [1] and over 10 µM in assay [2].
Regarding `N=S1(=O)CCN(C(=O)N(Cc2ccc(-c3nnc(C(F)F)o3)cc2F)c2ccc(Cl)cc2Cl)CC1` [Compound 51, N-(2,4-dichlorophenyl)-N-(4-(5-(difluoromethyl)-1,3,4-oxadiazol-2-y1)-2-fluorobenzyl)-1-iminothiomorpholin-4-carboxamide 1-oxide], the concentration for half-maximal inhibition (IC50) is 0.0699 µM in assay [1] and over 10 µM in assay [2].
The matching figures for `CC(=O)N=S1(=O)CCN(C(=O)N(Cc2ccc(-c3nnc(C(F)F)o3)cn2)c2ccccc2)CC1` [Compound 52, 1-(acetylimino)-N-((5-(5-(difluoromethyl)-1,3,4-oxadiazol-2-yl)pyridin-2-yl)methyl)-N-phenylthiomorpholin-4-carboxamide 1-oxide]: 0.0469 µM and over 10 µM.
Turning to `CS(=O)(=O)N=S1(=O)CCN(C(=O)N(Cc2ccc(-c3nnc(C(F)F)o3)cn2)c2ccccc2)CC1` [Compound 53, N-((5-(5-(difluoromethyl)-1,3,4-oxadiazol-2-yl)pyridin-2-yl)methyl)-1-((methylsulfonyl)imino)-N-phenylthiomorpholin-4-carboxamide 1-oxide], the values for the half-maximal inhibitory concentration (IC50) in assay [1] and in assay [2] were 0.0406 µM and over 10 µM, respectively.
As to `N=S1(=O)CCN(C(=O)N(Cc2c(F)cc(-c3nnc(C(F)F)o3)cc2F)c2ccccc2F)CC1` [Compound 54, N-(4-(5-(difluoromethyl)-1,3,4-oxadiazol-2-y1)-2,6-difluorobenzyl)-N-(2-fluorophenyl)-1-iminothiomorpholin-4-carboxamide 1-oxide], the IC50 in assay [1] was 0.2 µM; in assay [2], over 10 µM.
